Results taken from patent US12616646B2, “Use of rochelle salt” (SKYLAB AG, priority 2021, dated 2026).

Legend:
[1] = FtCl (Ft Cleaning) 300 cleaning and whitening ability test on Martindale tester, Example 1; conditions: Δ by 4 cycles values
Experimental: To determine resistance of dental enamel to attrition on a Martindale tester (hereinafter—Tester) the sets were analyzed—samples of solutions of piezoelectric materials and tooth brushes based on the following indicator: • FtCl (Ft Cleaning) 300, characterizes the cleaning ability of a solution (paste) by making 300 cleaning movements (mah) in a suspension of piezoelectric materials. The indicator is used as an analog of PCR (Pellicle Cleaning Ration) and it enables quantitative assessment of the cleaning and whitening action of a solution (paste) in case of a single-time cleaning. […]
Determination of FtCl300 for a solution of piezoelectric materials: • path: ∞L=25 mm, • rate 150 mah/min, • impact—300 mah, • brush load 325 g, • minimum quantity of parallel determinations—one per each paste with a test brush, • a test tooth brush: tooth brush PROFESSIONAL COMPLETE of medium hardness, • use one brush head for not more than 3-4 cycles, i.e. for 900-1200 mah, owing to wear out of bristles; then replace the brush head with a new one. […]
FtCl300 values were calculated by the formula: FtCl300=100*(Lcl−Lcol)/(Lin−Lcol) Preparation of Solutions: • 1. […]
Test results. […] In this model any color is determined with lightness (L-Lightness) and two chromatic components: channel a—colors from dark green through gray to purple, channel b—colors from blue through gray to yellow. […]

[2] = Antioxidant activity in relation to ascorbic acid by the ferricyanide spectrophotometric method; conditions: 2% solution in distilled water
From the text: Materials and methods. The test item was 2% seignette salt solution in distilled water.

[3] = concentration of 0.01%; vegetable oils subjected to heating; cited from earlier work

Row | SMILES | difference in FtCl300 to barium titanate [1] | Antioxidant activity (AOA) [2] | Antioxidant activity, AOA in relation to vitamin C (higher than vitamin C) [2] | antioxidant effect [3]
1 | O.O.O.O.O=C([O-])C(O)C(O)C(=O)[O-].[K+].[Na+] (stereo not shown) [seignette salt, potassium sodium tartrate KNaC4H4O6·4H2O] | 0.19 | 0.00013 mol-eq/l | 13.7% | –
2 | O=C([O-])C(O)C(O)C(=O)[O-].[Na+].[Na+] (stereo not shown) [sodium tartrate] | – | – | – | marked antioxidant effect
